# Source: patent publication US12377152B2, “Compounds for degrading alpha-synuclein aggregates and uses thereof” (APRINOIA THERAPEUTICS LIMITED, priority 2019, dated 2025)
# Experiments:
# α-synuclein [1] = molecular target: T1, α-synuclein (Homo sapiens (Human), UniProt P37840); assay: In vitro fluorometric α-synuclein binding assay; settings: 2 μM α-synuclein, 37° C., 1 hour, fluorescence
# Experimental: (§1) (A) Expression and purification of recombinant wild-type human α-synuclein: 0.5 mM IPTG was used to induce production of wild type human α-synuclein by bacteria transformed with a full-length α-synuclein expression plasmid. After shaking at 16° C. for 20 hours, cell pellet was resuspended in lysis buffer (10 mM Tris, 1 mM EGTA, 0.75 mM NaCl, 1 mM PMSF, pH 7.5) and lysed by sonication followed by centrifugation (6000 g, 30 min, 4° C.). The supernatant was then boiled at 95° C. for 15 min with manual agitation by every 5 minutes, followed by centrifugation (6000 g, 30 min, 4° C.). Supernatant was dialyzed with (10 mM Tris, 1 mM EGTA, 50 mM NaCl, pH 7.5) buffer and concentrated with concentrator. The collected sample was loaded onto a Superdex200 column, the flow-through fraction was then loaded onto a Q-HP column. Collected fractions with α-synuclein eluates were pooled, concentrated and stored at −80° C.
# (§2) (B) Preparation of aggregated α-synuclein: 5 mg/mL of α-synuclein in PBS buffer (pH 7.4) was incubated in tube with at 37° C. with shaking (700 rpm) for 5-10 days.
# (C) In vitro fluorometric α-synuclein binding assays: 2 μM α-synuclein was incubated with serially diluted compound (three-fold serial dilutions, from 10 to 0.001 μM) in a 96-well plate at 37° C. for 1 hour. Fluorescence intensity was read by microplate spectrometer. Compound Kd values were calculated using the following equation: Y=Bmax*X/(Kd+X), where X is the concentration of compound; Y is the fluorescence signal of (compound+α-synuclein)−(compound+DMSO); and Bmax is the maximum signal.
# α-synuclein [2] = molecular target: T1, α-synuclein; assay: PBB5 competition assay; assay type: binding; settings: 2 μM α-synuclein, 0.26 μM PBB5, 37° C., 1 hour
# Experimental: as §1, §2
# (D) PBB5 competition assay: 2 μM of α-synuclein was incubated with 0.26 μM 2-(4-(2-(methylamino)pyridine-5-yl)-1,3-butadiene-1-yl)benzothiazole-6-ol (PBB5) and serially diluted compound (three-fold serial dilution, from 10 to 0.001 μM) in a 96-well plate at 37° C. for 1 hour. Fluorescence intensity (excitation/emission=530/690 nm) of PBB5 was read by microplate spectrometer. Percentage of competition was calculated using the following equation: (Max−well of compound alone)/(Max−Min)*100%, where Max=(α-synuclein+PBB5) signals−(buffer+PBB5) signals; and Min=(buffer+PBB5) signals−(buffer+PBB5) signals. The IC50 value of each compound was calculated with GraphPad Prism software using the “4 Parameter Logistic Model or Sigmoidal Dose-Response Model”: Y=Bottom+(Top−Bottom)/(1+(IC50/X)^HillSlope)
# α-synuclein aggregates = α-synuclein aggregates (Homo sapiens (Human), UniProt P37840); assay: ReNcell VM α-synuclein aggregation assay; assay type: cell-based; settings: ReNcell VM cells; read-out: Activity (DC50, concentration at which 50% of α-synuclein aggregates has been degraded)
# Experimental: The ReNcell VM α-synuclein aggregation assay was conducted at Charles River Laboratories (CRL). ReNcell VM is an immortalized human neural progenitor cell line derived from the ventral mesencephalon region of the brain. ReNcell VM cells were selected as in vitro cellular model for the α-synuclein aggregation assay, based on their growth features, differentiation potential into terminally differentiated neurons and amenability to adenoviral transduction. Aggregated human wild type α-synuclein was overexpressed through adenoviral delivery. Aggregated α-synuclein was detected with the aggregate-selective anti-α-synuclein antibody MJFR14 using immunocytochemistry; total α-synuclein levels were detected with Syn205 (α/β-synuclein-specific antibody).
# The ReNcell VM α-synuclein aggregation assay was applied for compound screening to identify compounds capable of degrading α-synuclein aggregates. […] Immunoreactivity toward aggregated (MJFR14) and total α-synuclein (Syn205) was quantified using high content-based segmentation of immunoactive areas in immunocytochemical images (performed with the IN Cell 2200 (GE Healthcare)), followed by quantification of immunofluorescent intensity (performed by CRL's developed algorithm using IN Cell Developer Toolbox software).
# Percentage effect (PE): Inhibition in comparison to BLANK (0.1% DMSO).
# PE=100−(signal of compound/average signal BLANK)×100
# Compound-induced cytotoxicity (% remaining cells)
# % remaining cells=(nuclei count of compound/average nuclei count of BLANK)×100
Structure (SMILES),Kd (α-synuclein [1]) [nM],IC50 (α-synuclein [2]) [nM],DC50 (α-synuclein aggregates) [nM]
CN(C)c1ccc(-c2ccc(-c3nc4ccc(OCCOCCOc5cccc6c5C(=O)N(C5CCC(=O)NC5=O)C6=O)cc4s3)cc2)cn1 (stereo not shown) [Compound 180944],430,610,
O=C1CCC(N2Cc3cc(OCCCC(=O)Nc4ccc(-c5ccc(-c6cc7ccncc7[nH]6)cc5)cn4)ccc3C2=O)C(=O)N1 (stereo not shown) [Compound 166099],5630,40,> 10000
CN(C)c1ccc(-c2ccc(-c3nc4c(OCCOCCOc5ccc6c(c5)CN(C5CCC(=O)NC5=O)C6=O)cccc4s3)cc2)cn1 (stereo not shown) [Compound 166330],590,2600,> 10000
O=C1CCC(N2Cc3cc(OCCOCCNc4cc(-c5ccc(-c6nc7ccc(F)cc7s6)c(C(F)(F)F)c5)ccn4)ccc3C2=O)C(=O)N1 (stereo not shown) [Compound 166965],220,10000,
CN(C)c1ccc(-c2ccc(-c3nc4ccc(NC(=O)CCCOc5ccc6c(c5)CN(C5CCC(=O)NC5=O)C6=O)cc4s3)cc2)cn1 (stereo not shown) [Compound 170742],,,> 10000
"CN(C)c1ccc(-c2ccc(-c3nc4ccc(NCCOCCOCCOCCOCCOCCOc5ccc6c(c5)C(=O)N(C5CCC(=O)NC5=O)C6=O)cc4s3)cc2)cn1 (stereo not shown) [Compound 159985, 2-[2,6-bis(oxo)piperidin-3-yl]-5-[2-[2-[2-[2-[2-[2-[[2-[4-[6-(dimethylamino)-pyridin-3-yl]phenyl]-1,3-benzothiazol-6-yl]amino]ethoxy]ethoxy]ethoxy]ethoxy]ethoxy]-ethoxy]isoindole-1,3-dione]",,,> 10000
O=C1CCC(N2Cc3cc(OCCCCCNc4cc(-c5ccc(-c6nc7ccc(F)cc7s6)cc5)ccn4)ccc3C2=O)C(=O)N1 (stereo not shown) [Compound 165825],,> 10000,
"CN(C)c1ccc(-c2ccc(-c3nc4ccc(NCCCCCOc5ccc6c(c5)C(=O)N(C5CCC(=O)NC5=O)C6=O)cc4s3)cc2)cn1 (stereo not shown) [Compound 161103, 2-[2,6-bis(oxo)piperidin-3-yl]-5-[5-[[2-[4-[6-(dimethylamino)-pyridin-3-yl]phenyl]-1,3-benzothiazol-6-yl]amino]pentoxy]isoindole-1,3-dione]",,,> 10000
"CN(C)c1ccc(-c2ccc(-c3cn4cc(OCCOCCOc5ccc6c(c5)C(=O)N(C5CCC(=O)NC5=O)C6=O)ccc4n3)cc2)c(F)n1 (stereo not shown) [Compound 161111, 2-[2,6-bis(oxo)piperidin-3-yl]-5-[2-[2-[2-[4-[6-(dimethylamino)-2-fluoro-pyridin-3-yl]phenyl]imidazo[1,2-a]pyridin-6-yl]oxyethoxy]ethoxy]isoindole-1,3-dione]",,,> 10000
COc1ccc2nc(-c3ccc(-c4ccnc(NCCOCCOc5ccc6c(c5)C(=O)N(C5CCC(=O)NC5=O)C6=O)c4)cc3)cn2c1 (stereo not shown) [Compound 129975],,,> 10000
CN(C)c1ccc(-c2ccc(-c3nc4ccc(NCCCOCCCOc5ccc6c(c5)CN(C5CCC(=O)NC5=O)C6=O)cc4s3)c(C(F)(F)F)c2)cn1 (stereo not shown) [Compound 123374],,,> 10000
O=C1CCC(N2C(=O)c3ccc(OCCOCCNc4cc(-c5ccc(-c6nc7ccc(F)cc7s6)cc5)ccn4)cc3C2=O)C(=O)N1 (stereo not shown) [Compound 165952],,,> 10000
CN(C)c1ccc(-c2ccc(-c3cn4cc(OCCCCCOc5ccc6c(c5)CN(C5CCC(=O)NC5=O)C6=O)ccc4n3)cc2)c(F)n1 (stereo not shown) [Compound 170451],,,> 10000
COc1ccc2nc(-c3ccc(-c4ccnc(NC(=O)CCCOc5ccc6c(c5)CN(C5CCC(=O)NC5=O)C6=O)c4)cc3)sc2c1 (stereo not shown) [Compound 138876],,,900 to 10000
"CN(C)c1ccc(-c2ccc(-c3nc4ccc(NCCOCCOCCOCCOCCOCCOc5ccc6c(c5)CN(C5CCC(=O)NC5=O)C6=O)cc4s3)cc2)cn1 (stereo not shown) [Compound 160273, 3-[6-[2-[2-[2-[2-[2-[2-[[2-[4-[6-(dimethylamino)pyridin-3-yl]phenyl]-1,3-benzothiazol-6-yl]amino]ethoxy]-ethoxy]ethoxy]ethoxy]ethoxy]ethoxy]-3-oxo-1H-isoindol-2-yl]piperidine-2,6-dione]",,,10 to 900
"CN(C)c1ccc(-c2ccc(-c3nc4ccc(NCCOCCOc5ccc6c(c5)CN(C5CCC(=O)NC5=O)C6=O)cc4s3)cc2)cn1 (stereo not shown) [Compound 160313, 3-[6-[2-[2-[[2-[4-[6-(dimethylamino)pyridin-3-yl]phenyl]-1,3-benzothiazol-6-yl]amino]ethoxy]ethoxy]-3-oxo-1H-isoindol-2-yl]piperidine-2,6-dione]",,,> 10000
O=C1CCC(N2C(=O)c3ccc(OCCOCCNc4ccc(-c5ccc(-c6cc7ccncc7[nH]6)cc5)cn4)cc3C2=O)C(=O)N1 (stereo not shown) [Compound 170354],,,10 to 900
CN(C)c1ccc2nc(-c3ccc(-c4ccc(NCCOCCOc5ccc6c(c5)CN(C5CCC(=O)NC5=O)C6=O)nc4)cc3C(F)(F)F)sc2c1 (stereo not shown) [Compound 177031],,,> 10000
CN(C)c1ccc(-c2ccc(-c3nc4ccc(OC(=O)CCOCCOc5ccc6c(c5)CN(C5CCC(=O)NC5=O)C6=O)cc4s3)cc2)cn1 (stereo not shown) [Compound 175552],,,> 10000
COc1ccc2nc(-c3ccc(-c4ccnc(NCCCCCOc5ccc6c(c5)CN(C5CCC(=O)NC5=O)C6=O)c4)cc3)cn2c1 (stereo not shown) [Compound 165802],2440,> 10000,> 10000
COc1cc(-c2ccc(N(C)C)nc2)ccc1-c1nc2ccc(NCCOCCOc3ccc4c(c3)CN(C3CCC(=O)NC3=O)C4=O)cc2s1 (stereo not shown) [Compound 129071],,,> 10000
CN(C)c1ccc(-c2ccc(-c3nc4ccc(C(=O)OCCOCCOCCOc5ccc6c(c5)CN(C5CCC(=O)NC5=O)C6=O)cc4s3)cc2)cn1 (stereo not shown) [Compound 166124],340,30,
O=C1CCC(N2Cc3cc(OCCOCCOc4ccc5nc(-c6ccc(-c7ccc(NC8CC8)nc7)cc6)sc5c4)ccc3C2=O)C(=O)N1 (stereo not shown) [Compound 177032],60,,> 10000
CN(C)c1ccc(-c2ccc(-c3cn4cc(OCCOCCOc5ccc6c(c5)CN(C5CCC(=O)NC5=O)C6=O)ccc4n3)cc2)cn1 (stereo not shown) [Compound 177033],650,630,> 10000
Cc1ncsc1-c1ccc(CNC(=O)[C@@H]2C[C@@H](O)CN2C(=O)[C@@H](NC(=O)COCCOCCOc2ccc3nc(-c4ccc(-c5ccc(N(C)C)nc5)cc4)sc3c2)C(C)(C)C)cc1 [Compound 178884],,,> 10000
COc1ccc2nc(-c3ccc(-c4ccnc(NCCOCCOc5ccc6c(c5)CN(C5CCC(=O)NC5=O)C6=O)c4)cc3)oc2c1 (stereo not shown) [Compound 166123],480,410,
CN(C)c1ccc2nc(-c3ccc(-c4ccc(NCCOCCOc5ccc6c(c5)C(=O)N(C5CCC(=O)NC5=O)C6=O)nc4)cc3)sc2c1 (stereo not shown) [Compound 170353],,,> 10000
CN(C)c1ccc(-c2ccc(-c3nc4ccc(OCCCCC(=O)Nc5cccc6c5CN(C5CCC(=O)NC5=O)C6=O)cc4s3)cc2)cn1 (stereo not shown) [Compound 189149],,,> 10000
"CN(C)c1ccc2nc(-c3ccc(-c4ccc(NCCOCCOc5ccc6c(c5)C(=O)N(C5CCC(=O)NC5=O)C6=O)nc4)cc3)sc2c1 (stereo not shown) [Compound 161177, 2-[2,6-bis(oxo)piperidin-3-yl]-5-[2-[2-[[5-[4-[6-(dimethylamino)-1,3-benzothiazol-2-yl]phenyl]pyridin-2-yl]amino]ethoxy]ethoxy]isoindole-1,3-dione]",,,> 10000
CN(C)c1ccc2nc(-c3ccc(-c4ccc(NCCOCCN5C(=O)CCC(N6C(=O)c7ccc(O)cc7C6=O)C5=O)nc4)cc3)sc2c1 (stereo not shown) [Compound 170351],,,900 to 10000
